In PubChem BioAssay AID330 (DTP/NCI, 2004):
Several values for one entry are separate records, joined by “and”; a condition that tells them apart may be missing. Equal values may be shown once. Inconclusive results and toxic doses are left out.

Test system: P388 leukemia ip, CD2F1 mice, survival T/C
Assay: NCI In Vivo Anticancer Drug Screen. Data for tumor model P388 Leukemia (intraperitoneal) in CD2F1 (CDF1) mice
Conditions: endpoint: median survival time, higher = longer survival
In short: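 Mice carrying the transplanted tumor received test compound or vehicle. Survival was recorded in each group, and the value is the treated-group measurement divided by that of the vehicle-treated control group.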

[1] = dose: 25.0 mg/kg/injection, schedule: Q01DX009 (ip), vehicle: saline
[2] = dose: 50.0 mg/kg/injection, schedule: Q01DX009 (ip), vehicle: saline
[3] = dose: 100.0 mg/kg/injection, schedule: Q01DX009 (ip), vehicle: saline
[4] = dose: 200.0 mg/kg/injection, schedule: Q01DX009 (ip), vehicle: saline
[5] = dose: 50.0 mg/kg/injection, schedule: Q01DX005 (ip), vehicle: Klucel (hydroxypropylcellulose) (HPC)
[6] = dose: 100.0 mg/kg/injection, schedule: Q01DX009 (ip), vehicle: saline with Tween-80
[7] = dose: 200.0 mg/kg/injection, schedule: Q01DX009 (ip), vehicle: saline with Tween-80
[8] = dose: 50.0 mg/kg/injection, schedule: Q01DX009 (ip), vehicle: Klucel (hydroxypropylcellulose) (HPC)
[9] = dose: 100.0 mg/kg/injection, schedule: Q01DX009 (ip), vehicle: Klucel (hydroxypropylcellulose) (HPC)
[10] = dose: 200.0 mg/kg/injection, schedule: Q01DX009 (ip), vehicle: Klucel (hydroxypropylcellulose) (HPC)

CC(=O)OCC(C)(C)COC1OCN(C(C)(C)C)CC1(C)C (stereo not drawn)
T/C (dose: 10.0 mg/kg/injection, schedule: Q01DX009 (ip), vehicle: saline with Tween-80): 94 % of control | T/C (dose: 20.0 mg/kg/injection, schedule: Q01DX009 (ip), vehicle: saline with Tween-80): 104 % of control | T/C (dose: 40.0 mg/kg/injection, schedule: Q01DX009 (ip), vehicle: saline with Tween-80): 110 % of control

C=C1C(=O)OC2/C=C(\C)CC/C=C(/C)CC(OC(=O)/C(=C/CO)CO)C12 (stereo not drawn)
T/C (dose: 5.0 mg/kg/injection, schedule: Q01DX009 (ip), vehicle: Klucel (hydroxypropylcellulose) (HPC)): 108 % of control and 113 % of control | T/C (dose: 10.0 mg/kg/injection, schedule: Q01DX009 (ip), vehicle: Klucel (hydroxypropylcellulose) (HPC)): 106 % of control and 115 % of control (2×) | T/C (dose: 20.0 mg/kg/injection, schedule: Q01DX009 (ip), vehicle: Klucel (hydroxypropylcellulose) (HPC)): 106 % of control and 117 % of control | T/C (dose: 40.0 mg/kg/injection, schedule: Q01DX009 (ip), vehicle: Klucel (hydroxypropylcellulose) (HPC)): 113 % of control and 117 % of control and 89 % of control

Cn1c(=O)c2[nH]c(/N=N/N(CCCl)CCCl)nc2n(C)c1=O
T/C [1]: 100 % of control | T/C [2]: 100 % of control | T/C [3]: 104 % of control | T/C [4]: 107 % of control | T/C (dose: 400.0 mg/kg/injection, schedule: Q01DX009 (ip), vehicle: saline): 96 % of control

CC(=O)Nc1ccc(S(N)(=O)=O)cc1
T/C [1]: 96 % of control | T/C [2]: 95 % of control | T/C [3]: 96 % of control | T/C [4]: 102 % of control

COC(=O)C1CC(C(=O)OC)c2nc3ccccc3nc21 (stereo not drawn)
T/C (dose: 60.0 mg/kg/injection, schedule: Q01DX005 (ip), vehicle: Klucel (hydroxypropylcellulose) (HPC)): 100 % of control | T/C (dose: 120.0 mg/kg/injection, schedule: Q01DX005 (ip), vehicle: Klucel (hydroxypropylcellulose) (HPC)): 98 % of control

NC(=O)N/N=C/c1cccs1
T/C (dose: 3.12 mg/kg/injection, schedule: Q01DX009 (ip), vehicle: saline with Tween-80): 97 % of control | T/C (dose: 6.25 mg/kg/injection, schedule: Q01DX009 (ip), vehicle: saline with Tween-80): 97 % of control | T/C (dose: 12.5 mg/kg/injection, schedule: Q01DX009 (ip), vehicle: saline with Tween-80): 93 % of control

O=C1CC2(C(=O)NN1)C1=C(c3ccccc3CC1)N1CCCC12 (stereo not drawn)
T/C (dose: 11.25 mg/kg/injection, schedule: Q01DX009 (ip), vehicle: Klucel (hydroxypropylcellulose) (HPC)): 100 % of control | T/C (dose: 22.5 mg/kg/injection, schedule: Q01DX009 (ip), vehicle: Klucel (hydroxypropylcellulose) (HPC)): 102 % of control | T/C (dose: 45.0 mg/kg/injection, schedule: Q01DX009 (ip), vehicle: Klucel (hydroxypropylcellulose) (HPC)): 100 % of control | T/C (dose: 90.0 mg/kg/injection, schedule: Q01DX009 (ip), vehicle: Klucel (hydroxypropylcellulose) (HPC)): 100 % of control

CCn1c(COc2c(I)cc(I)c3cccnc23)n[nH]c1=S
T/C (dose: 6.25 mg/kg/injection, schedule: Q01DX005 (ip), vehicle: Klucel (hydroxypropylcellulose) (HPC)): 96 % of control | T/C (dose: 12.5 mg/kg/injection, schedule: Q01DX005 (ip), vehicle: Klucel (hydroxypropylcellulose) (HPC)): 98 % of control | T/C (dose: 25.0 mg/kg/injection, schedule: Q01DX005 (ip), vehicle: Klucel (hydroxypropylcellulose) (HPC)): 102 % of control | T/C [5]: 98 % of control

COc1cc2c(cc1O)CCCC(C)(C)C2=O
T/C [6]: 95 % of control | T/C [7]: 96 % of control

Cc1cccc(NC(=O)Nc2cccc(S(N)(=O)=O)c2)c1C
T/C (dose: 50.0 mg/kg/injection, schedule: Q01DX009 (ip), vehicle: saline with Tween-80): 104 % of control | T/C [6]: 90 % of control | T/C [7]: 90 % of control

O=C(O)c1cnc2ccccn12
T/C (dose: 50.0 mg/kg/injection, schedule: Q01DX009 (ip), vehicle: acetone): 112 % of control | T/C [2]: 95 % of control | T/C (dose: 100.0 mg/kg/injection, schedule: Q01DX009 (ip), vehicle: acetone): 117 % of control | T/C [3]: 96 % of control | T/C (dose: 200.0 mg/kg/injection, schedule: Q01DX009 (ip), vehicle: acetone): 102 % of control | T/C [4]: 107 % of control

Cc1ccc(N2C(=O)CC3(CCCC3)C2=O)cc1Cl
T/C [8]: 104 % of control | T/C [9]: 108 % of control | T/C [10]: 105 % of control

O=C(OC[P+](c1ccccc1)(c1ccccc1)c1ccccc1)c1ccccc1
T/C [2]: 89 % of control

Cc1c(CNc2ccc(C(=O)NC(CC(=O)O)CC(=O)O)cc2)ccc2nc(N)nc(N)c12
T/C (dose: 3.13 mg/kg/injection, schedule: Q04DX003 (ip), vehicle: saline): 229 % of control | T/C (dose: 12.5 mg/kg/injection, schedule: Q04DX003 (ip), vehicle: saline with Tween-80): 118 % of control | T/C (dose: 25.0 mg/kg/injection, schedule: Q04DX003 (ip), vehicle: saline with Tween-80): 113 % of control | T/C (dose: 33.0 mg/kg/injection, schedule: Q04DX003 (ip), vehicle: saline sonified): 90 % of control | T/C (dose: 50.0 mg/kg/injection, schedule: Q04DX003 (ip), vehicle: saline sonified): 86 % of control | T/C (dose: 50.0 mg/kg/injection, schedule: Q04DX003 (ip), vehicle: saline with Tween-80): 159 % of control

COC(=O)CCSC(=O)NC(C)C
T/C [5]: 99 % of control | T/C (dose: 100.0 mg/kg/injection, schedule: Q01DX005 (ip), vehicle: Klucel (hydroxypropylcellulose) (HPC)): 102 % of control | T/C (dose: 200.0 mg/kg/injection, schedule: Q01DX005 (ip), vehicle: Klucel (hydroxypropylcellulose) (HPC)): 100 % of control

CC(C)CNc1ncnc2n[nH]nc12
T/C (dose: 50.0 mg/kg/injection, schedule: Q01DX005 (ip), vehicle: saline with Tween-80): 100 % of control | T/C (dose: 100.0 mg/kg/injection, schedule: Q01DX005 (ip), vehicle: saline with Tween-80): 103 % of control | T/C (dose: 200.0 mg/kg/injection, schedule: Q01DX005 (ip), vehicle: saline with Tween-80): 100 % of control

CC1(C)CCC[C@](C)(O)C2CCC=CC21 (stereo partly drawn)
T/C (dose: 100.0 mg/kg/injection, schedule: Q04DX002 (ip), vehicle: Klucel (hydroxypropylcellulose) (HPC)): 106 % of control | T/C (dose: 200.0 mg/kg/injection, schedule: Q04DX002 (ip), vehicle: Klucel (hydroxypropylcellulose) (HPC)): 104 % of control | T/C (dose: 400.0 mg/kg/injection, schedule: Q04DX002 (ip), vehicle: Klucel (hydroxypropylcellulose) (HPC)): 114 % of control

COc1c2c(c(O)c3c4c(c(C)cc13)C1OC3(C(OC)OC5CC(C)(O)C(OC6CC(C)(O)C(O)C(C)O6)C(C)O5)OC1C(OC)(O4)C31CO1)C(=O)C(O)CC2OC1CC(C)(O)C(OC(C)=O)C(C)O1 (stereo not drawn)
T/C (dose: 0.06 mg/kg/injection, schedule: Q01DX005 (ip), vehicle: saline): 158 % of control | T/C (dose: 0.13 mg/kg/injection, schedule: Q01DX005 (ip), vehicle: saline): 155 % of control and 166 % of control

ClCOc1cc(Cl)c(OCCl)cc1Cl
T/C [8]: 116 % of control | T/C [9]: 113 % of control | T/C [10]: 101 % of control

c1ccccc1
T/C (dose: 0.12 % in 0.5 ml injection vol, schedule: Q01DX009 (ip), vehicle: water): 100 % of control | T/C (dose: 0.25 % in 0.5 ml injection vol, schedule: Q01DX009 (ip), vehicle: water): 102 % of control | T/C (dose: 0.5 % in 0.5 ml injection vol, schedule: Q01DX009 (ip), vehicle: water): 104 % of control | T/C (dose: 1.0 % in 0.5 ml injection vol, schedule: Q01DX009 (ip), vehicle: water): 100 % of control | T/C (dose: 2.0 % in 0.5 ml injection vol, schedule: Q01DX009 (ip), vehicle: water): 100 % of control and 102 % of control | T/C (dose: 4.0 % in 0.5 ml injection vol, schedule: Q01DX009 (ip), vehicle: water): 99 % of control | T/C (dose: 8.0 % in 0.5 ml injection vol, schedule: Q01DX009 (ip), vehicle: water): 100 % of control | T/C (dose: 16.0 % in 0.5 ml injection vol, schedule: Q01DX009 (ip), vehicle: water): 95 % of control

COC(=O)C1(C)CCC=CC1Sc1ccccc1 (stereo not drawn)
T/C (dose: 100.0 mg/kg/injection, schedule: Q04DX003 (ip), vehicle: Klucel (hydroxypropylcellulose) (HPC)): 100 % of control | T/C (dose: 200.0 mg/kg/injection, schedule: Q04DX003 (ip), vehicle: Klucel (hydroxypropylcellulose) (HPC)): 105 % of control | T/C (dose: 400.0 mg/kg/injection, schedule: Q04DX003 (ip), vehicle: Klucel (hydroxypropylcellulose) (HPC)): 99 % of control

C/C(=C\c1ccccc1)C(=O)C(CN(C)C)CN(C)C
T/C (dose: 1.87 mg/kg/injection, schedule: Q01DX005 (ip), vehicle: saline): 111 % of control | T/C (dose: 3.75 mg/kg/injection, schedule: Q01DX005 (ip), vehicle: saline): 113 % of control | T/C (dose: 7.5 mg/kg/injection, schedule: Q01DX005 (ip), vehicle: saline): 100 % of control and 113 % of control
